Common to all, as to test: growth of human tumour cells (NCI), 48 h
Experiment [1] concerns 786-0 renal.
In experiment [2] the test system is CCRF-CEM leukemia.
Experiment [3] relates to DU-145 prostate.
The subject of experiment [4] is HS 578T breast.
Experiment [5] relates to MCF7 breast.
Experiment [6] deals with MDA-MB-231 breast.
In experiment [7] the test system is PC-3 prostate.
For experiment [8], the system named is SK-MEL-5 melanoma.
In experiment [9] the test system is SK-OV-3 ovarian.
In experiment [10] the test system is SNB-19 CNS.

“And” between values parts separate entries of the source, which are not always exact repeats. Equal entries are not always repeated.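 48-hour exposure; five concentrations; linearly interpolated endpoints. Here, GI50 denotes the concentration required for 50% inhibition of growth. TGI: concentration producing complete growth inhibition.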

For `OC(c1cc(-c2ccc(C(F)(F)F)cc2)nc(C(F)(F)F)c1)C1CCCCN1` (stereo not given), the GI50 in experiment [1] is 1.57 µM; in [2], 1.62 µM; in experiment [3] it was 1.76 µM and 2.66 µM; in experiment [4] it was 1.96 µM and 3.92 µM; in [5] it was 1.61 µM; in [6], 1.72 µM and 2.42 µM. The GI50 in experiment [7] is 1.72 µM; in experiment [8] it was 1.63 µM and 1.86 µM; in experiment [10] it was 1.53 µM and 5.66 µM. The TGI in experiment [1] is 3.16 µM and 3.48 µM; in [2], 3.53 µM and 4.81 µM; in [3], 3.14 µM and 7.06 µM; in experiment [4], 4.05 µM and 12.2 µM; in [5], 3.08 µM and 3.42 µM; in experiment [6] it was 3.16 µM and 5.65 µM. Besides, the TGI in experiment [7] was 3.37 µM and 6.33 µM; in experiment [8], 2.99 µM and 3.27 µM; in experiment [9], 4.75 µM and 5.99 µM; in experiment [10] it was 2.92 µM and 13.5 µM.
As for `CC1(C)CN=C(NN=C(/C=C/c2ccc(C(F)(F)F)cc2)/C=C/c2ccc(C(F)(F)F)cc2)NC1`, the GI50 is 1.78 µM in [1]; 1.12 µM in [2]; 1.04 µM in [3]; 1.56 µM in experiment [4]; 1.4 µM in [5]; 0.477 µM in experiment [6]. Moreover, the GI50 is 1.6 µM in [8], 1.77 µM in [9] and 1.5 µM in experiment [10]. The TGI was 3.42 µM in [1]; 4.17 µM in experiment [2]; 2.22 µM in experiment [3]; 3.64 µM in experiment [4]; 2.92 µM in experiment [5]; 1.91 µM in experiment [6]. Moreover, the TGI in experiment [8] came out at 3.11 µM; in experiment [9], 3.16 µM; in [10] it was 3.18 µM.
As for `CCCC/C(=C\C1=C(C)C(=O)C(OC)=C(OC)C1=O)C(=O)O`, the GI50 in experiment [1] is more than 100 µM; in experiment [3], more than 100 µM; in experiment [4], more than 100 µM; in experiment [5], more than 100 µM; in [6], 33.9 µM; in experiment [7], more than 100 µM. For the same compound, the GI50 in experiment [8], in experiment [9] and in [10] was more than 100 µM in each case. Besides, the TGI in experiment [1], in experiment [3], in experiment [4], in experiment [5], in experiment [6] and in [7] was more than 100 µM in each case. Besides, the TGI in [8], in experiment [9] and in experiment [10] was more than 100 µM in each case.
As to `COC(c1ccc(C(C)(C)C)cc1)(c1ccc(C(C)(C)C)cc1)c1ccc(C(C)(C)C)cc1`, the TGI in experiment [1], in [2], in [3], in [4], in [5] and in [6] was more than 100 µM throughout. For the same compound, the TGI in experiment [7], in [8] and in experiment [10] was more than 100 µM each time.
As for `O=C1CCCN1c1ccccc1I(=O)=O`, the GI50 in experiment [1], in [2], in [3], in experiment [4], in [5] and in experiment [6] was more than 100 µM in each case. For the same compound, the GI50 in [8], in experiment [9] and in experiment [10] was more than 100 µM in each case. Also, the TGI in experiment [1], in [2], in experiment [3], in experiment [4], in [5] and in [6] was more than 100 µM each time. For the same compound, the TGI in experiment [8], in experiment [9] and in [10] was more than 100 µM in each case.
For `CN(C)CCNCCN`, the TGI in [1], in [3], in experiment [4], in experiment [5], in [6] and in [7] was more than 100 µM throughout. For the same compound, the TGI in [8], in experiment [9] and in [10] was more than 100 µM throughout.
Consider `COc1cc(/C=C\c2cc(OC)c(OC)c(OC)c2)cc(N/C=C\C(=O)c2c[nH]c3ccccc23)c1OC`, for which the GI50 in experiment [1] is 2.04 µM; in experiment [3] it was 2.06 µM; in experiment [4] it was 2.21 µM; in experiment [5], 0.72 µM; in experiment [6], 1.73 µM; in experiment [7], 3.44 µM. The GI50 in [8] is 3.14 µM; in experiment [9] it was 12.3 µM; in [10] it was 3.92 µM. In addition, the TGI in [1] was determined as 4.14 µM; in experiment [3], 4.08 µM; in experiment [4], 12.9 µM; in [5] it was 3.15 µM; in experiment [6], 4.11 µM; in [7] it was 18.6 µM. Besides, the values for the TGI in [8], in [9] and in [10] were 12.6 µM, 27 µM and 24.4 µM, respectively.
With `CCc1ccc2c(c1)C(=O)c1c-2n(CCCN=[N+]=[N-])c(=O)c2cc([N+](=O)[O-])ccc12`, the GI50 in [1], in experiment [2], in [3], in experiment [4], in experiment [5] and in experiment [6] was more than 50 µM throughout. The GI50 in experiment [7], in experiment [8] and in experiment [10] was more than 50 µM in each case. Besides, the TGI in experiment [1], in [2], in [3], in experiment [4], in [5] and in experiment [6] was more than 50 µM each time. Also, the TGI in experiment [7], in experiment [8] and in [10] was more than 50 µM throughout.
Turning to `COc1cc2c(/C=N\N=C(N)N)c[nH]c2cc1C`, the GI50 in experiment [1] was 19.4 µM; in experiment [2], 14.6 µM; in experiment [4] it was 18.5 µM; in experiment [5] it was 13 µM; in experiment [6], 14.7 µM; in experiment [7], 14.3 µM. The GI50 in [8] was 17.2 µM; in [9] it was 25.8 µM; in experiment [10], 19.2 µM. The TGI in experiment [1] amounted to 46.8 µM; in experiment [2], 27.7 µM; in [4], 40 µM; in experiment [5] it was 25.7 µM; in experiment [6], 34.1 µM; in experiment [7], 27.4 µM. Also, the TGI was found to be 30.9 µM in [8], 62.2 µM in experiment [9] and 54.5 µM in experiment [10].

The values are drawn from PubChem BioAssay (NCI).
